Converted amounts (≈) assume the structure as drawn. Where only a bound is given, the exact number is not on record here.

What is called CC50 is the concentration that lowers cell viability or growth by half. As usually defined, the EC50 is the concentration giving half of the maximal effect. By IC50 is commonly meant the concentration that gives 50% inhibition. As usually defined, the IC90 is the concentration needed for an effect of 90%.

Series [1] in a line: Cytotoxicity against African green monkey Vero cells assessed as reduction in cell viability. It is filed as cell-based. The conditions noted are these: chlorocebus sabaeus.
The subject of series [2] is Chikungunya virus. Briefly: Antiviral activity against Chikungunya virus infected in African green monkey Vero cells. Format: functional, organism-based.
The test system of series [3] is Chikungunya virus. Nature of the series: Antiviral activity against Chikungunya virus C347 infected in African green monkey Vero cells assessed as inhibition of viral-induced cytopathic effect after 2 days by microscopic analysis. Format: functional, organism-based. As to conditions: 48 h. (In general: Protection from cytopathic effect is a common read-out in antiviral testing.)

In series [4] the test system is Aedes aegypti. Briefly: Induction of oviposition deterrent activity in Aedes aegypti assessed as effective repellency at 15 ug/ml after 24 hrs by stereomicroscopic analysis relative to control. It is filed as functional.
Series [5] concerns Aedes aegypti. Nature of the series: Induction of oviposition deterrent activity in Aedes aegypti assessed as effective repellency at 75 ug/ml after 24 hrs by stereomicroscopic analysis relative to control. Format: functional.
The test system of series [6] is Aedes aegypti. Briefly: Larvicidal activity against Aedes aegypti Paea assessed as mortality at 7 ug/ml after 24 hrs relative to control. Format: functional.
Series [7] relates to Aedes aegypti. Briefly: Larvicidal activity against Aedes aegypti Paea assessed as mortality after 24 hrs. It is filed as functional, organism-based.
Series [8] has as its system Aedes aegypti. Nature of the series: Induction of oviposition deterrent activity in Aedes aegypti assessed as effective repellency at 30 ug/ml after 24 hrs by stereomicroscopic analysis relative to control. It is filed as functional.
Series [9] concerns Aedes aegypti. Briefly: Larvicidal activity against Aedes aegypti Paea assessed as mortality at 28 ug/ml after 24 hrs relative to control. It is filed as functional.
In series [10] the test system is Aedes aegypti. Briefly: Larvicidal activity against Aedes aegypti Paea assessed as mortality at 14 ug/ml after 24 hrs relative to control. It is filed as functional.
Series [11] has as its system Aedes aegypti. Nature of the series: Induction of oviposition deterrent activity in Aedes aegypti assessed as effective repellency at 60 ug/ml after 24 hrs by stereomicroscopic analysis relative to control. Format: functional.
In series [12] the test system is Aedes aegypti. Briefly: Larvicidal activity against Aedes aegypti Paea assessed as mortality at 35 ug/ml after 24 hrs relative to control. Format: functional.
For series [13], the system named is Aedes aegypti. Briefly: Induction of oviposition deterrent activity in Aedes aegypti assessed as effective repellency at 45 ug/ml after 24 hrs by stereomicroscopic analysis relative to control. It is filed as functional.
The subject of series [14] is Aedes aegypti. Briefly: Larvicidal activity against Aedes aegypti Paea assessed as mortality at 21 ug/ml after 24 hrs relative to control. Format: functional.
Series [15] is described as follows: Cytotoxicity against BHK21 cells in presence of ATP by Celltiter-Glo assay. Format: cell-based, Mesocricetus auratus. As to conditions: hamster, BHK-21 cells. (In general: ATP-based viability assays read luminescence as a measure of living cells.)
The nature of series [16]: Selectivity index, ratio of CC50 for human Huh7.5 cells to EC50 for Chikungunya virus. As to conditions: read-out: Ratio CC50/EC50. Format: toxicity.
Series [17] relates to Chikungunya virus. Briefly: Antiviral activity against Chikungunya virus LR2006-OPY1 infected in human Huh7.5 cells after 48 hrs by luciferase reporter gene assay. It is filed as functional, organism-based. The conditions noted are these: LR2006-OPY1, Huh7.5, 48 h. (Reporter assays use an easily measured gene product as a stand-in for the process of interest.)
The subject of series [18] is Chikungunya virus. Briefly: Antiviral activity against Chikungunya virus at 0.006 to 300 uM by cell based luciferase reporter gene assay relative to control. Format: functional.
A short description of series [19]: Selectivity index, ratio of CC50 for BHK21 cells to EC50 for Chikungunya virus. It is filed as toxicity. As to conditions: hamster, BHK-21 cells; read-out: Ratio CC50/EC50.
The nature of series [20]: Cytotoxicity against human Huh7.5 cells in presence of ATP by Celltiter-Glo assay. It is filed as cell-based.
Series [21] relates to Chikungunya virus. Briefly: Antiviral activity against Chikungunya virus LR2006-OPY1 infected in BHK21 cells after 48 hrs by luciferase reporter gene assay. Format: functional, organism-based. As to conditions: LR2006-OPY1, BHK-21, 48 h.
A short description of series [22]: Selectivity index, ratio of CC50 for BHK-21 cells to EC50 for Chikungunya virus 0810bTw. Format: toxicity. As to conditions: hamster, read-out: Ratio CC50/EC50.
Series [23] in a line: Cytotoxicity against BHK21 cells assessed as reduction in cell viability after 16 hrs by CCK-8 assay. As to conditions: hamster, BHK-21 cells. Format: cell-based, Mesocricetus auratus.
Series [24] in a line: Selectivity index, ratio of CC50 for human U2OS cells to EC50 for Chikungunya virus. Format: toxicity. As to conditions: read-out: Ratio CC50/EC50.
Series [25] deals with Chikungunya virus. Nature of the series: Antiviral activity against Chikungunya virus infected in BHK-21 cells by RT-qPCR analysis. It is filed as functional, organism-based.
Series [26] is described as follows: Selectivity index, ratio of CC50 for BHK-21 cells to EC50 for Chikungunya virus 0611aTw. It is filed as toxicity. As to conditions: hamster, read-out: Ratio CC50/EC50.
For series [27], the system named is Chikungunya virus. Briefly: Antiviral activity against Chikungunya virus 0810bTw infected in BHK-21 cells by RT-qPCR analysis. It is filed as functional, organism-based.
The nature of series [28]: Selectivity index, ratio of CC50 for BHK-21 cells to EC50 for Chikungunya virus. It is filed as toxicity. The conditions noted are these: hamster, read-out: Ratio CC50/EC50.
The subject of series [29] is Chikungunya virus. Briefly: Antiviral activity against Chikungunya virus 0611aTw infected in BHK-21 cells by RT-qPCR analysis. Format: functional, organism-based.
In series [30] the test system is Chikungunya virus. Briefly: Antiviral activity against Chikungunya virus infected in human U2OS cells by RT-qPCR analysis. It is filed as functional, organism-based.
A short description of series [31]: Cytotoxicity against human U2OS cells assessed as reduction in cell viability after 16 hrs by CCK-8 assay. Format: cell-based.
Series [32] has as its system Chikungunya virus. Nature of the series: Antiviral activity against Chikungunya virus venturini isolate (Italy 2008) infected in African green monkey Vero-A cells assessed as inhibition of viral-induced cytopathic effect measured on day 7 post infection by MTS/PMS assay. It is filed as functional, organism-based. The conditions noted are these: 168 h.
The test system of series [33] is Chikungunya virus. Nature of the series: Antiviral activity against Chikungunya virus 899 infected in African green monkey Vero-A cells assessed as inhibition of viral-induced cytopathic effect measured on day 7 post infection by MTS/PMS assay. The conditions noted are these: Chikungunya virus, 899, 168 h. Format: functional, organism-based.
The test system of series [34] is Chikungunya virus. Briefly: Antiviral activity against Chikungunya virus LR2006-OPY1 infected in African green monkey Vero-A cells assessed as inhibition of viral-induced cytopathic effect measured on day 7 post infection by MTS/PMS assay. Format: functional, organism-based. As to conditions: LR2006-OPY1, 168 h.
The test system of series [35] is Chikungunya virus. Briefly: Antiviral activity against Chikungunya virus S-27 assessed as viral titer interferon loading. It is filed as functional.
The nature of series [36]: Selectivity index, ratio of CC50 for African green monkey Vero cells to IC50 for Chikungunya virus nsP2 protease. It is filed as toxicity. As to conditions: read-out: Ratio CC50/IC50.
Series [37] in a line: Selectivity index, ratio of CC50 for African green monkey Vero cells to EC50 for Chikungunya virus. It is filed as toxicity. As to conditions: read-out: Ratio CC50/EC50.

Consider `CC/C(C)=C/C(=O)O[C@@H]1[C@H](C)C[C@H]2O[C@]1(O)[C@@H](O)[C@H]1CC[C@H](O1)C(C)(C)/C=C/[C@H](C)C2=O`, for which the CC50 in series [1] worked out at 60.9 µg/mL (≈ 135 µM). Also, in the series on Chikungunya virus [2], the EC50 was less than 0.8 µg/mL.

Take `O=c1cnn([C@@H]2O[C@H](CO)[C@@H](O)[C@H]2O)c(=O)[nH]1` [6-AZAURIDINE]: the half-maximal effective concentration (EC50) in the series on Chikungunya virus [3] turned out to be 0.82 µM.

With `CC(C)=CCCC(C)[C@@]1(O)CC=C(C)CC1` (some centres undefined), the Activity in the series on Aedes aegypti [4] came out at 72.3%; in the series on Aedes aegypti [5] it was 88.99%; in the series on Aedes aegypti [6] it was 24.8%; in the series on Aedes aegypti [8], 77.03%; in the series on Aedes aegypti [9], 84.7%; in the series on Aedes aegypti [10], 42.6%. Besides, the Activity in the series with Aedes aegypti [11] is on record as 85.45%; in the series on Aedes aegypti [12], 98.1%; in the series with Aedes aegypti [13] it was 81.13%; with Aedes aegypti [14], 63.2%. In the series with Aedes aegypti [7], the IC50 turned out to be 15.8 µg/mL (≈ 71.2 µM). Besides, in the series with Aedes aegypti [7], the IC90 is 30.3 µg/mL (≈ 136 µM).

With `CC1=C(/C=C/C(C)=C/C=C/C(C)=C/C(=O)Nc2ccc(O)cc2)C(C)(C)CCC1` [FENRETINIDE], the CC50 in [15] amounted to 31.5 µM; in series [20], 15.6 µM. In addition, the selectivity ratio worked out at 29.9 in series [16] and 10.3 in series [19]. In addition, the half-maximal effective concentration (EC50) in the series on Chikungunya virus [17] was found to be 0.5 µM; in the series with Chikungunya virus [21], 3.1 µM. This compound also gave an Activity in the series with Chikungunya virus [18] of 65%.

Turning to `CC(=O)Oc1ccccc1C(=O)Nc1ncc([N+](=O)[O-])s1` [NITAZOXANIDE], the selectivity ratio worked out at 5.05 in [22], 8.31 in series [24], 12.8 in series [26] and 8.45 in series [28]. For the same compound, the CC50 at 16 h in series [23] and in series [31] was 25 µM throughout. For the same compound, the concentration for a half-maximal effect (EC50) was 2.96 µM in the series with Chikungunya virus [25], 4.95 µM with Chikungunya virus [27], 1.96 µM in the series with Chikungunya virus [29] and 3.01 µM in the series with Chikungunya virus [30].

Take `NC(=O)c1nc(F)cnc1O` [FAVIPIRAVIR]: the results for the EC50 in the series with Chikungunya virus [32], with Chikungunya virus [33] and in the series with Chikungunya virus [34] were 16 µM, 25 µM and 25 µM, respectively.

Regarding `Sc1ncnc2nc[nH]c12` [MERCAPTOPURINE ANHYDROUS], the Activity with Chikungunya virus [35] is reported as 47 - 67 U/ml.

As to `CCOc1ccc(/C=N/NC(=O)C2CC2c2ccc(C(C)(C)C)cc2)cc1OCC` (centres undefined), the selectivity ratio in [36] turned out to be 14.

In the series with Chikungunya virus [2], `CC(=O)C(C)/C(C)=C/C(=O)O[C@@H]1[C@H](C)C[C@H]2O[C@]1(O)[C@@H](O)[C@H]1CC[C@H](O1)C(C)(C)/C=C/[C@H](C)C2=O` (some centres undefined) displayed an EC50 of 7 µM. Besides, in series [37], the selectivity ratio was determined as 8.8.

For the origin of these results see ChEMBL document CHEMBL4177563, “The medicinal chemistry of Chikungunya virus” (Bioorg Med Chem, 2017).
